Patent US20230382934A1, “HIGH ENTROPY OXIDES AND METHODS OF SYNTHESIS AND USE THEREOF” (Auburn University, priority 2022, published 2023)

Experiments:
[1] = Stability of Fe(III) complexes by potentiometric pH titration (log KML); format: physicochemical; settings: 25° C.
Method: (§1) The aqueous speciation of H4qp4 was previously determined. Those for its Fe(II) and Fe(III) complexes were assessed using a METROHM 765 Dosimat with a jacketed, airtight glass titration vessel. A Fisher Scientific Accumet Research AR15 pH meter was used to monitor the pH of the sample solutions during the titrations. The electrode was calibrated before each titration using commercially available standard solutions buffered to pH 4.0, 7.0, and 10.0. All samples were purged with argon prior to analysis and subsequently analyzed under an argon atmosphere at 25° C. to prevent carbonate contamination. All solution samples were prepared in solutions of 100 mM KCl in deionized Millipore water. The titrations investigating metal-ligand speciation were run with solutions that contained a 1:1 molar mixture of the ligand and FeCl2·(4H2O). Carbonate-free solutions of 0.10 M KOH and 0.10 M HCl were prepared using argon-saturated deionized Millipore water. The titration data were analyzed and fit to speciation models using the Hyperquad2006 program.

[2] = cited from earlier work; for pMn: pH 7.4, 1.0 mM Mn(II) and ligand, previously characterized complexes; for log KML of the Mn(II) complex: other reported Mn(II)-binding ligands
[3] = Metal ion exchange with Fe(II) followed by UV/vis; format: physicochemical
Method: FIG. 18, comprising FIG. 18A and FIG. 18B, depicts representative spectrophotometric spectra. FIG. 18A depicts spectrophotometric analysis of the reaction between 0.1 mM Fe(ClO4)2 and 0.1 mM 1 in MeCN at 298 K. The UV/vis spectra of the product formed from 0.1 mM Fe(ClO4)2 and 0.1 mM H4qp4 (blue) and that corresponding to 0.1 mM 1 are provided for comparison. FIG. 18B depicts spectrophotometric analysis of the reaction between 0.1 mM Fe(OTf)2 and 0.1 mM 1 in aqueous solutions containing 50 mM HEPES buffered to pH 7.00 at 298 K. The UV/vis spectrum of the product formed from 0.1 mM Fe(OTf)2 and 0.1 mM H4qp4 (blue) and that corresponding to 0.1 mM 1 are provided for comparison.

[4] = cited from earlier work; for increase of relaxivity upon oxidation by excess H2O2: recently reported sensors
[5] = Variable temperature 17O NMR, aquation number and water exchange of Mn(II) complexes; format: physicochemical; settings: Example 1, Mn(II) complexes, 298 K
Method: FIG. 16 depicts plots of r2° as a function of temperature for 1 before and after oxidation by H2O2. Experimental conditions for pre-activated sensor (black squares): [1]=6.0 mM in 60 mM HEPES buffered to pH 7.4 and 10% (v/v) of 10% ^17OH2, B=9.4 T. Experimental conditions for activated sensor (red circles): [1]=2.5 mM in 60 mM MOPS buffered to pH 7.4 with 15 equiv. H2O2 and 10% (v/v) of 10% ^17OH2, B=9.4 T. NMR data acquisition began 15 min after the start of the oxidation reaction.
Aquation numbers (q) were calculated from the maximum ^17O transverse relaxivity, r2max°, and the equation: q=r2max°/510; Gale, Zhu, and Caravan previously used this relationship to estimate the inner-sphere hydration state of Mn(II) in coordination complexes (Gale, E. M. et al., 2013, J. Am. Chem. Soc., 135:18600). Relaxation rates were measured both for aqueous solutions containing Mn(II) complexes and for metal-free solutions buffered to pH 7.4. The linewidths at half-height of the signal were determined by a deconvolution procedure on the real part of the Fourier transformed spectra with a Lorentzian shape function in the data analysis module of Bruker Topspin 1.3® software. The measurements were performed with a commercial 5 mm Bruker broadband probe thermostat with a Bruker B-VT 3000 variable temperature unit. […]

[6] = Example 1, previously reported Mn(II) complex 3; cited from earlier work
[7] = T1-weighted relaxivity, 3 T clinical MRI scanner
From the text: All MRI data were collected at the Auburn University MRI Research Center on a Siemens Verio open-bore 3-T MRI clinical scanner. A 15-channel knee coil was used to simultaneously image 12-15 samples. The imaging procedure was identical to those used for similar studies (Zhang, Q. et al., 2011, Inorg. Chem. 50, 9365; Yu, M. et al., 2014, J. Am. Chem. Soc., 136:12836; Yu, M. et al., 2017, Inorg. Chem., 56:2812; Yu, M. et al., 2012, Inorg. Chem. 51:9153). An inversion recovery (IR) sequence was used that featured a non-selective adiabatic inversion pulse followed by a slice-selective gradient recalled echo (GRE) readout after a delay period corresponding to the inversion time (TI) (Bernstein, M. A. et al., 2004, Handbook of MRI Pulse Sequences; Haacke, E. M. et al., 1999, Magnetic Resonance Imaging: Physical Principles and Sequence Design). The GRE was a saturation readout, such that only one line of k-space was acquired per repetition time (TR), in order to maximize both signal strength and the accuracy of the T1 estimates. […]
Image analysis was performed using custom Matlab programs (Mathworks, Natick, MA). The initial TI=4.8 ms image was used as a baseline to determine circular region of interest (ROI) boundaries for each sample; from these, the mean pixel magnitudes for each ROI were calculated. […]

[8] = Metal ion exchange with Zn(II) followed by 1H NMR; format: physicochemical; settings: Example 2, 10 mM Fe(III) complex 3 and 20 mM Zn(ClO4)2, 48 h
Method: FIG. 19, comprising FIG. 19A and FIG. 19B, depicts representative NMR data. FIG. 19A depicts a reaction between 20 mM Zn(ClO4)2 and 10 mM 1 in CD3CN. The reaction equilibrated at 295 K for 24 h prior to data acquisition. FIG. 19B depicts the ^1H NMR spectrum of the product of the reaction between 10 mM Zn(ClO4)2 and 10 mM metal-free H4qp4.
FIG. 63, comprising FIG. 63A and FIG. 63B, depicts representative NMR data. FIG. 63A depicts the reaction between 20 mM Zn(ClO4)2 and 10 mM 3 in D20. The reaction equilibrated at 295 K for 48 h prior to data acquisition. FIG. 63B depicts a ^1H NMR spectrum of the product of the reaction between 10 mM Zn(ClO4)2 and 10 mM metal-free H4qp4 in D20.

[9] = Stability of Fe(II) complexes by potentiometric pH titration (log KML); format: physicochemical; settings: 25° C.
Method: as §1

In the case of CC#N.O=S(=O)([O-])C(F)(F)F.O=S(=O)([O-])C(F)(F)F.Oc1ccc(O)c(CN(CCN(Cc2ccccn2)Cc2ccccn2)Cc2ccccn2)c1.[Mn+2] [Complex 2], the “log KML” value [1] is given as 38.84, the pMn [2] is given as 7.25 and the “Mn(II) displaced by an equimolar amount of Fe(II)” value ([3]; Example 1, MeCN, by 15 h) is given as “approximately 10%”. For the same molecule, the “increase of relaxivity upon oxidation by excess H2O2” value [4] was 10%.
In the case of O=S(=O)([O-])C(F)(F)F.O=S(=O)([O-])C(F)(F)F.[Fe+3].[O-]c1ccc(O)cc1CN1CCCNCCN(Cc2cc(O)ccc2O)CCCNCC1 [Complex 3, (1-(2,5-dihydroxybenzyl)-8-(2,5-dihydroxybenzylalkoxide)-1,4,8,11-tetraazacyclotetradecane)iron(III) triflate], the “rate constant for water exchange (kex)” value [5] is listed as 4.9e+06 s⁻¹, the “log KML” value [1] is listed as 33.80 and the “r1 of pre-activated form” value [6] is listed as 5.46 mM^−1 s^−. The r1 ([7]; Example 2, Fe(III) complex 3, 3 T, 50 mM HEPES pH 7.00, 298 K) was 0.87 mM⁻¹ s⁻¹, the “Zn(II) complex with H4qp4 formed” value [8] was “only trace amounts” and the pMn [2] was 5.36. For the same molecule, the “Mn(II) displaced by an equimolar amount of Fe(II)” value ([3]; Example 1, by 3 h) was 80%.
For Oc1ccc(O)c(CN(CCN(Cc2ccccn2)Cc2cc(O)ccc2O)Cc2ccccn2)c1.[Br-].[Br-].[Mn+2] [Complex 3], the “increase of relaxivity upon oxidation by excess H2O2” value [4] is listed as 30%.
In the case of O=C(O)CN1CCN(CC(=O)O)CCN(CC(=O)O)CCN(CC(=O)O)CC1 [DOTA^4−], the “log KML of the Mn(II) complex” value [2] is given as 19.89.
In the case of O=C([O-])CN(CC(=O)[O-])C1CCCCC1N(CC(=O)[O-])Cc1ccccn1.[Fe+2] (stereo not drawn) [Fe(II)-PyC3A], the “increase in relaxivity on oxidation to Fe(III)” value ([4]; 1.4 T) is listed as 10 fold.
In the case of NCCN1CCN(CC(=O)O)Cc2cccc(n2)CN(CC(=O)O)CC1 [PC2A-EA^2−], the “log KML of the Mn(II) complex” value [2] is given as 19.01.
For O=C(O)CN(CC(=O)O)C1CCCCC1N(CC(=O)O)Cc1ccccn1 (stereo not drawn) [PyC3A^3−], the “log KML of the Mn(II) complex” value [2] is given as 14.14.
Molecule O.O.O.O.O.O.[Mn+2] [[Mn(H2O)6]^2+] has a T1-weighted relaxivity ([7]; Example 1, measured independently) of 5.26 mM^−1 s^−.
For “(1-(2,5-dihydroxybenzyl)-8-(2,5-dihydroxybenzylalkoxide)-1,4,8,11-tetraazacyclotetradecane)iron(II) triflate [Complex 1]”, the “log KML” value [9] was 27.16.
